Counter-ions that a name gives are not always drawn.
Columns and labels:
[1] = tested on: scopolamine induced amnesia; assay: Passive avoidance test, scopolamine induced amnesia; assay type: in vivo; conditions: rats
Description: Male Sprague-Dawley rates weighing 200~250 g (12~16 weeks) which had been maintained on a 12 h/12 h light-dark cycle were used for a passive avoidance test. Food and water were available ad libitum. An automated system with a shuttle box (Model PACS-30, Columbus Instruments International Company) was used to evaluate the effects of the extracts on learning and memory essentially as described (11). The shuttle box was divided into two chambers of equal size (19"L×9"W×10.875"H). These compartments were separated by a guillotine door (3" L×2.625" W). A light chamber is equipped with an illuminator. Rats can go to the dark chamber through a guillotine door. […]
At 24 hours after the training trial, scopolamine (1 mg/kg) or the same volume of saline was intraperitoneally injected to the rats. […] At 24 hours after the acquisition trial, the rat was again placed in the light compartment and latency to enter the dark compartment was measured for 180 sec (retention trial).
To investigate the effects of repeated administration of DHED, a repeated administration of DHED was intraperitoneally given to the rats at a dose of 6.25 mg/kg. Except for the fact that DHED (6.25 mg/kg) was given to the rats once a day for 5 days before the treatment with scopolamine, the latency time was measured in the same manner as in the single administration.

AChE = molecular target: T1, AChE (Mus musculus, UniProt P21836); assay: Determination of AChE inhibitory activity (Ellman reagent, acetylthiocholine iodide); assay type: biochemical, mice
T1 construct: The resulting supernatant was used as an AChE source; from tissue; host or cells: mouse cerebral cortex (detergent-extracted supernatant)
Description: In order to determine AChE inhibitory activity on each of the 20 subfractions obtained from EXAMPLE 1, 10 volumes of phosphate buffer solution (12.5 mM phosphate buffer solution at pH 7.0, including 400 mM NaCl) was added to the cerebral cortex of mice, homogenized in a Potter-Elvehjem homogenizer and centrifuged at 1,000 g for 10 min to obtain the supernatant. After adding homogenized buffer containing 0.5% triton X-100 to the supernatant, the mixtures were stirred for 30 min and centrifuged again at 10,000 for 10 min. The resulting supernatant was used as an AChE source. All extract steps were carried out at 4° C.
The freeze-dried 20 subfraction extracts of EXAMPLE 1 were initially dissolved in small amounts of distilled water and DMSO. The solution was diluted at a concentration of 200 μg/ml in phosphate buffer (100 mM sodium phosphate, pH 8.0; hereinafter called "buffer solution I"). 1.5 ml of each extract was mixed with 1.5 ml of buffer solution I, 20 μl of 75 mM acetylthiocholine iodide solution and 100 μl of buffered Ellmans reagent [10 mM DTNB (5,5-dithiobis-(2-nitrobenzoic acid)) and 17.85 mM NaHCO3 ] and incubated at 25° C. for 10 min. Absorbance was read at 410 nm immediately after adding an enzyme to the above reaction mixtures. Reading was repeated for 5 min at 30 sec intervals in order to determine AChE inhibitory activity on each subfraction. A blank control reaction was measured by substituting saline for the enzyme.
AChE activity was calculated with the absorption coefficient […]. The inhibition efficacy was expressed as a percentage of enzyme activity inhibited compared with the control value (100%).
All experiments were repeated five times, and the results were analyzed by a Wilcoxon-rank sum test and Median 2-sample test.

[2] = Single toxicity study, lethality by a single oral administration; assay type: in vivo, rats; conditions: rat, in vivo; after a single administration (oral)
Description: (§1) A single toxicity study of the anti-dementia agent according to this invention was measured using rats. […] The lethality results by a single oral administration of DHED are as follows: […]

rats = assay: as above; assay type: in vivo; conditions: single oral, 14 days
Description: as §1

T1 sequence (P21836 32-614): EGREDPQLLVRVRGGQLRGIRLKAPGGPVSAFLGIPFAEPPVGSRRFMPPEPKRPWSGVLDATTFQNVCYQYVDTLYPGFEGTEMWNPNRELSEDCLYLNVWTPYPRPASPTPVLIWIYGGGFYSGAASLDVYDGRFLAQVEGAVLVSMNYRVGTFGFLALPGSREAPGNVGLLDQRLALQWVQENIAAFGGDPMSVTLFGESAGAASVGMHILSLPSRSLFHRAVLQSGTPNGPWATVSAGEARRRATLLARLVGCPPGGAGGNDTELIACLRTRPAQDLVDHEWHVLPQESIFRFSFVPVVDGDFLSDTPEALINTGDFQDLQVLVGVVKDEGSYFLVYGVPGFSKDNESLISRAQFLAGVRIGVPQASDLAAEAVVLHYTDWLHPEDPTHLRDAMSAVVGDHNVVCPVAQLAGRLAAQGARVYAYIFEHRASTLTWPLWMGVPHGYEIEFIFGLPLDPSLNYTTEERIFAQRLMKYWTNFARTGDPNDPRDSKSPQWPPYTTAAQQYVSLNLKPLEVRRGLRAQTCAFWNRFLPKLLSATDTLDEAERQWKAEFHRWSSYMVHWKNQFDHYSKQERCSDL

For C[n+]1c2n(c(=O)c3ccccc31)CCc1c-2[nH]c2ccccc12 [DHED, dehydroevodiamine-HCl], the “memory enhancement (latency in retention trial), repeated administration” value ([1]; 6.25 mg/kg intraperitoneally once a day for 5 days before scopolamine 1 mg/kg, FIG. 6) was “may improve memory enhancement”, the “memory enhancement (latency in retention trial), single administration” value ([1]; 6.25 mg/kg intraperitoneally, single, scopolamine 1 mg/kg, FIG. 5) was “significant memory enhancement” and the IC50 (AChE; AChE source from cerebral cortex of mice, FIG. 3, read-out: concentration required for 50% enzyme inhibition (IC50) of AChE) was 37.8 µM. For the same molecule, the “inhibitory effect on AChE, dose dependence” value (AChE; FIG. 3) was “strong inhibitory effect on AChE in a dose-dependent manner”, the “manner of AChE inhibition (Lineweaver-Burke plots)” value (AChE; substrate 23 to 230 μM, DHED 40 μM, FIG. 4) was “non-competitive” and the LD50 [2] was 2000 mg/kg. The Mortality (rats; female, 1,000 mg/kg) was 1/5, the Mortality (rats; female, 1,500 mg/kg) was 2/5 and the Mortality (rats; female, 2,000 mg/kg) was 0/5. For the same molecule, the Mortality (rats; female, 3,000 mg/kg) was 5/5, the Mortality (rats; female, 4,000 mg/kg) was 5/5 and the Mortality (rats; male, 1,000 mg/kg) was 0/5. The Mortality (rats; male, 1,500 mg/kg) was 0/5, the Mortality (rats; male, 2,000 mg/kg) was 5/5 and the Mortality (rats; male, 3,000 mg/kg) was 4/5. The Mortality (rats; male, 4,000 mg/kg) was 5/5.

— patent publication US5859016A, “Memory enhancing and anti-dementia agent containing dehydroevodiamine HC1 as active ingredient” (priority 1995, dated 1999)
